What was measured:
[1] = biological target: sGC in the CHO reporter cell (Rattus norvegicus (Rat), UniProt P20595); assay: Action at a recombinant guanylate cyclase reporter cell line; format: cell-based; details: CHO reporter cell in vitro
Description: The cellular action of the compounds according to the invention is determined at a recombinant guanylate cyclase reporter cell line, as described in F. Wunder et al., Anal. Biochem. 339, 104-112 (2005).

[2] = biological target: soluble guanylate cyclase (sGC) (Rattus norvegicus (Rat), UniProt P20595); assay: Stimulation of sGC enzyme activity (PPi detection, luciferase); format: biochemical; details: sGC enzyme in vitro
Description: Soluble guanylate cyclase (sGC) converts on stimulation GTP into cGMP and pyrophosphate (PPi). PPi is detected with the aid of the assay described below. The signal produced in the assay increases as the reaction progresses and serves as a measure of the sGC enzyme activity under the given stimulation.
To carry out the assay, 29 μl of enzyme solution [0-10 nM soluble guanylate cyclase (prepared according to Honicka et al., J. Mol. Med. 77, 14-23 (1999)) in 50 mM TEA, 2 mM MgCl2, 0.1% BSA (fraction V), 0.005% Brij®, pH 7.5] are initially introduced into a microplate, and 1 μl of the substance to be tested (as a serially diluted solution in DMSO) is added. The mixture is incubated at room temperature for 10 min. […] The enzyme reaction is started by adding 20 μl of substrate solution [1.25 mM guanosine 5′-triphosphate (Sigma) in 50 mM TEA, 2 mM MgCl2, 0.1% BSA (fraction V), 0.005% Brij®, pH 7.5] and measured continuously in a luminometer. The extent of the stimulation by the substance to be tested can be determined relative to the signal of the unstimulated reaction. […]

sGC in the CHO reporter cell, sequence (P20595 whole entry): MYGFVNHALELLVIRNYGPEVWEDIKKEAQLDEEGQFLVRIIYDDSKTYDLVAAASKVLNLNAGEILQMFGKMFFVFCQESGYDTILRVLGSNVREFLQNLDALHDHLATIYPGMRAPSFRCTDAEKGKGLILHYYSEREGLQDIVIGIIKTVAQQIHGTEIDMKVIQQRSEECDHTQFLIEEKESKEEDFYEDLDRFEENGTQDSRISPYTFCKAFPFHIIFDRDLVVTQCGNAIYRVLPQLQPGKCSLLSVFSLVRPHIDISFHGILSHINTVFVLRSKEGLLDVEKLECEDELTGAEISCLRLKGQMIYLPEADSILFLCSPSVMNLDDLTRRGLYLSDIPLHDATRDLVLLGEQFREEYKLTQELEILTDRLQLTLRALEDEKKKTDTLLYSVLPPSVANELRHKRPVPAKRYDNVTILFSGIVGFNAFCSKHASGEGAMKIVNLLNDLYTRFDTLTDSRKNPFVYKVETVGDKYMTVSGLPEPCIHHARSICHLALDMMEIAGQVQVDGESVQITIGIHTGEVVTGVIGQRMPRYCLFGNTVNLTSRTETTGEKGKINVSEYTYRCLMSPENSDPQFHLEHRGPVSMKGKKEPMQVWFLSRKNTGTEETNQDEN
sGC in the CHO reporter cell, sequence (P19686 whole entry partner): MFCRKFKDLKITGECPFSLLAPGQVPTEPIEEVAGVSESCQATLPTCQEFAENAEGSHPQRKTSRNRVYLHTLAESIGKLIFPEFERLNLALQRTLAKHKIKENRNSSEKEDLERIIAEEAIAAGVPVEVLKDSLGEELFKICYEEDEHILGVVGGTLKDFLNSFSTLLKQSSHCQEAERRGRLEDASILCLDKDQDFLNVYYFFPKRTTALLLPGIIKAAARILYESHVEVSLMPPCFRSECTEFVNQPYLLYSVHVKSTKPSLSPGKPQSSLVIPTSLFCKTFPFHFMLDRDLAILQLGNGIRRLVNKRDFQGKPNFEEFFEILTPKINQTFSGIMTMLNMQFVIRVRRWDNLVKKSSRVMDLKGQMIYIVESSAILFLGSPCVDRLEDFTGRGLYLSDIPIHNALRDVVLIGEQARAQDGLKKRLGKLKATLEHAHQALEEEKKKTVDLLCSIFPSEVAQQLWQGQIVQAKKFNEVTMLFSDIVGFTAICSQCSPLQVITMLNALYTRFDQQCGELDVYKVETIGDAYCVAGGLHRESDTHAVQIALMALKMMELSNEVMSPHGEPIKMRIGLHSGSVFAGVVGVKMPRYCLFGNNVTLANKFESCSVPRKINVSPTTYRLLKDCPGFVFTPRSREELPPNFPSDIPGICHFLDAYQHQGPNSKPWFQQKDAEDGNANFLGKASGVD
soluble guanylate cyclase (sGC), sequence (P20595 whole entry): as the sequence (P20595 whole entry) above
soluble guanylate cyclase (sGC), sequence (P19686 whole entry partner): as the sequence (P19686 whole entry partner) above

MEC (minimum effective concentration), sGC-activating activity in the CHO reporter cell [1]: 10 nM | MEC (minimum effective concentration), activating action at the sGC enzyme [2]: 17 nM
Structure (SMILES): CC(C(=O)O)C(c1ccc(Cl)c(NC(=O)C(c2ccc(Cl)cc2)[C@@H](C)C(F)(F)F)c1)C1CC1 (stereo partly drawn) [Example 30, 3-(4-Chloro-3-{[(3R)-2-(4-chlorophenyl)-4,4,4-trifluoro-3-methylbutanoyl]amino}phenyl)-3-cyclopropyl-2-methylpropanoic acid]
